According to patent publication US10827753B2, “Compositions and methods for controlling nematodes” (Monsanto Technology LLC, priority 2007, dated 2020):
Marks after values point to notes of the source that are not given here.

Experiments:
Meloidogyne incognita [1] = experiment: M. incognita miniaturized greenhouse assay on cucumber seedlings (root galling); format: in vivo; parameters: key to 1 ppm gall ratings / 1 ppm gall rating: mean of 3 gall ratings: 0=0-5%, 1=6-20%, 2=21-50%, 3=51-100% root galled; settings: for 8 ppm gall ratings: average of triplicate gall rating, scale 0-3 (% root mass galled)
How it was run: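 Compound in acetone/Triton X100 stock (5 mg/mL) diluted into water with 0.015% Triton X100 and applied to sand-planted sprouted cucumber seedlings; inoculated with 500 M. incognita eggs two days after planting. Roots harvested 10–12 days later; galling scored 0–3 by % root mass galled, averaged over triplicates, plus visual root phytotoxicity rating.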

Meloidogyne incognita [2] = experiment: Fall nematicidal field testing on squash microplots; format: in vivo; settings: for RG28 = % root galls at 28 days after treatment / RG43 = % root galls at 43 days after treatment: squash
Excerpt: The test site was located at 3511 Highway F in New Melle, Mo., Saint Charles county. The soil was a native prairie/pasture covering silty clay loam soil. Holes were dug using a Bobcat 763 skid loader with a 12-inch auger to a depth of 18 inches. Total volume of each hole was about 1.2 cubic feet. Six cubic yards of topsoil and 9 tons of river sand were purchased from Dardenne Farms Topsoil. Mixing to a ratio of 4 volumes sand to 1 volume soil was accomplished using a trailer-mounted 9 cubic foot concrete mixer. Holes were filled and then re-filled 5 days later after settling. The mixture was 92.5% sand, 2.5% silt, and 5% clay. Organic matter was 0.2% and pH was 6.8.
Treatments were arranged in a block design with the blocks laid out perpendicular to the primary slope and parallel to secondary slope. There are 7 inoculated controls and 5 non-inoculated controls and the distributions of disease severity appeared independent of location.
Application rates are expressed as kg of active material per hectare, and the mg per plot is based on the surface area of the bored and filled holes (0.000008559 Ha). The DC compounds were formulated immediately before application as follows: 1) the amount required to treat all six replicates was dissolved in 300 ml of acetone, 2) for each plot 50 ml of that solution was added to a graduated cylinder with 2 ml of 12.5% Triton X100 and the volume was raised to 500 ml with tap water. The resultant mix is the same as used in the standard greenhouse assays (10% acetone, 0.05%×100). The oxamyl treatments were prepared from Vydate 2 L formulated the same way. The 500 ml was placed in a watering can and the entire volume was evenly sprinkled over the surface of the plot. No runoff occurred and pooling, if any, was short lived. The final drench volume was 0.58 ml/cm^2, compared to 0.2 ml/cm^2 used in our greenhouse, however the microplots are much deeper so the drench volume applied per soil volume treated is roughly the same.
Meloidogyne incognita eggs were harvested over a two week period and stored at approximately 5° C. until needed. A stock of 5.6 million vermiform eggs was adjusted to 9000/ml in 620 ml. One day after treatment, two holes were made in each plot about 7 cm apart and equidistant from the squash plants. Five ml of egg suspension was pipetted into each hole, which was then sealed and the plot lightly watered. A total of 90,000 vermiform eggs were added to each plot.
The first root evaluation was at 28 DAT. The tops were cut off and weighed immediately in the field, and the roots were carefully dug out so as not to disturb the remaining plant.

Meloidogyne incognita [3] = experiment: Summer field evaluation of pre-plant incorporated compounds on squash; format: in vivo; settings: for 0-3 vigor 16 DAP / 0-3 vigor 21 DAP / feeder root (3 = ave) 31 DAP / gall % 31 DAP / root wgt (g) 31 DAP / top wgt (lbs) 31 DAP / total fruit (lbs): 4 kg (kg/ha) PPI, squash
Experimental: Test plots of 33 cm diameter holes were bored 41 cm deep into clay soil and filled with a mixture of 80% sand and 20% silt loam soil. Technical compound for each treatment was dissolved in 50 ml acetone containing 250 ul of Triton X-100 surfactant. This solution was added to 450 ml water and poured onto 95 liters of sand/soil mixture in a rotating drum mixer. While continuing to rotate the mixing drum 66 grams of chopped, galled, tomato roots was added and thoroughly distributed. The treated soil was sufficient to fill the top 15 cm of each of the 6 replicate plots, thus simulating a PPI treatment. The plots were then watered lightly and a mixture of M. incognita eggs and larvae were injected 5 cm deep at 5 points within the plot (100 k eggs/larvae in 10 ml per plot). Three-week old squash (cv. Liberator III) with 1 fully expanded true leaf was planted 4 days after soil treatment, one per plot.

[4] = test system: Heterodera glycines (SCN); experiment: Seed treatment test of soybean cyst nematode on soybean plants; format: in vivo
Experimental: For a given concentration the chemical is dissolved in 500 ul of acetone and one gram of cucumber seed (RKN test) or soybean seed (SCN test) is added (e.g., 20 mg active ingredient in 500 ul acetone plus 1 gram of seed). The seed solutions are agitated until all seeds were thoroughly covered with the chemical solution. The acetone is then allowed to evaporate by air drying the seeds. The seeds are planted in 2-inch pots containing sandy soil and then the pots are inoculated with 1000 Meloidogyne incognita (RKN) or 1000 Heterodera glycines (SCN) eggs per pot three days after planting. Plants are rated for galling 14 days after egg inoculation for RKN or 28 days after egg inoculation for SCN.

mice = settings: cited from earlier work
[5] = test system: sting (Belonolaimus longicaudatus) nematodes; experiment: Sting nematode bench top soil assay; format: in vivo
Experimental: Populations of sting (Belonolaimus longicaudatus) nematodes are maintained on St. Augustine turf grass on soil in 15-cm pots. At test initiation the turf is removed from the pots and the soil containing nematode eggs, juveniles, and adults is subdivided into pots each containing a volume of 125 cm^3′ The compounds to be tested are dissolved in 3 ml of acetone using 3, 6, or 15 mg to achieve equivalent surface area application rates of 2, 4, or 10 kg/ha, respectively. The 3 ml acetone stock solution is added to 30 ml of water, and 5 ml of that solution is used to drench each of 6 replicate test pots prepared as described above. The treated pots containing nematodes are incubated in the laboratory at ambient temperature of approximately 25° C. After 3 days the soil from each pot is washed onto a modified Baermann apparatus comprised of a screen supporting a layer of filter paper on which the soil sample is placed and set in a dish of water. The samples are then incubated at 25° C. for 24 hours to allow the live nematodes to migrate through the paper and screen and into a water reservoir to be collected for counting with a light microscope. Nematodes that have been killed or immobilized by the test compounds are not able to migrate into the reservoir.

[6] = test system: CD-1/Swiss derived albino mice; format: in vivo; settings: 500 mg/kg oral, three female mice, observed up to 14 days
Experimental: Acute oral toxicity testing was performed in mice in accordance with test method P203.UDP, as administered by Eurofins/Product Safety Laboratories (Dayton, N.J.). CD-1/Swiss derived albino mice were obtained and group housed in suspended solid bottom caging. The mice were fed rodent chow and filtered tap water was supplied ad libitum. Following acclimation to the laboratory setting, a group of animals was fasted overnight by removing food from the cages. After the fasting period, three female mice were selected based on vitality and initial body weights. The individual compound doses were calculated from these body weights.
The test substance was prepared as a 1% (50 mg/kg) or 5% (500 mg/kg) weight to weight (w/w) mixture in a 0.5% w/w solution of carboxymethylcellulose (CMC) in distilled water. A tissue homogenizer was used to create a homogeneous mixture. A dose of 50 or 500 mg/kg was administered to three healthy mice per dose level by oral intubation using a ball-tipped gavage needle attached to a syringe. After administration, the animals were returned to their cages, and feed was replaced immediately after dosing.
Body weights were recorded prior to initiation and on Days 7 and 14 or a soon as possible after death.

root knot nematode (RKN) = experiment: RKN greenhouse soil assay on cucumber plants; format: in vivo, Meloidogyne incognita; settings: 0 day treatment, test c
Excerpt: Cucumber seeds are planted in a sandy soil mixture in two inch square plastic pots. When the cotyledons are fully opened and just as the first leaf begins to emerge, usually 7 days after planting, chemistry for the 7 day treatment is applied. One week later the chemistry for the 0 day treatment is applied. Separate plants are used for each application. The plants are generally in the 1-2 leaf stage now. At least four hours after the chemistry application the pots are inoculated with root knot nematode (RKN) eggs. Plants are rated for galling 14 days after the egg inoculation.
One milligram of chemistry per four pots is equal to one kilogram per hectare of chemical. A standard test uses four replications. For rates above 2 kg/ha, the desired amount of chemical is weighed into a 30 ml vial (example: 8 kg/ha rate=8 mg chemical in 30 ml vial). The chemical is dissolved in 2 ml of appropriate solvent, generally acetone. For rates below 2 kg/ha, 2 milligrams of chemistry is weighed into the vial and dissolved in 2 ml of the solvent. The appropriate amount of chemical concentrate is then pipetted into a separate 30 ml vial and solvent is added to bring the volume to 2 ml (example 0.5 kg/ha=0.5 ml of concentrate+1.5 ml solvent). Each dissolved concentrate is then brought to a total of 20 milliliters using 0.05% Triton X 100 surfactant solution.
Pots to be treated are moist but not saturated. To each of four pots, five milliliters of the appropriate chemical solution is pipetted to the media surface making sure to avoid contact with the base of the plant. Immediately following chemical application, using a mist nozzle, the pot surface is wetted sufficiently to saturate the pot watering in the chemistry. The chemical application is done in the morning.
Nematode eggs, either SCN or RKN, are added to distilled water to create a concentration of 1000 vermiform eggs […]. At least four hours after chemical treatment the eggs are applied to the treated pots plus non-treated check plants. A small hole about 1 cm deep is punched into the pot surface. One milliliter of the nematode egg slurry is pipetted into the hole. Immediately afterwards the hole is gently covered. Watering of the test plants is then restricted to only water as needed to prevent wilt for a period of 24 hours. After the 24 hour restricted watering, normal sub-irrigation watering is done for the duration of the test.

## CNC(=O)O/N=C(\SC)C(=O)N(C)C [Oxamyl, oxamyl, reference compound]
Meloidogyne incognita [1]; 1 ppm (oxamyl standard of Table 1A), average of triplicate, scale 0-3
  gall ratings: 0.67 (1 ppm)
Meloidogyne incognita [1]; Table 1B test a
  1 ppm gall ratings: 0.67
Meloidogyne incognita [1]; Table 1B test b
  1 ppm gall ratings: 1 (1=6-20%)
Meloidogyne incognita [1]; Table 1B test c
  1 ppm gall ratings: 1.33
Meloidogyne incognita [1]; Table 1B test d
  1 ppm gall ratings: 1.33
Meloidogyne incognita [1]; Table 1B test e
  1 ppm gall ratings: 1 (1=6-20%)
Meloidogyne incognita [1]; Table 1C test a
  1 ppm gall rating: 1.33
Meloidogyne incognita [1]; Table 1C test b
  1 ppm gall rating: 1 (1=6-20%)
Meloidogyne incognita [1]; Table 1C test c
  1 ppm gall rating: 0.67^c
Meloidogyne incognita [1]; Table 1D test a
  1 ppm gall rating: 1.33^a,
Meloidogyne incognita [1]; Table 1D test b
  1 ppm gall rating: 1^b (1=6-20%)
Meloidogyne incognita [2]; 2 kg ai/ha drench
  RG28 = % root galls at 28 days after treatment: 45.0%
  RG43 = % root galls at 43 days after treatment: 42.3%
Meloidogyne incognita [2]; 5 kg ai/ha drench
  RG28 = % root galls at 28 days after treatment: 10.5%
  RG43 = % root galls at 43 days after treatment: 17.3%
Meloidogyne incognita [3]
  0-3 vigor 16 DAP: 2.7
  0-3 vigor 21 DAP: 2.5
  feeder root (3 = ave) 31 DAP: 3.0
  gall % 31 DAP: 85%
  root wgt (g) 31 DAP: 37.0 g
  top wgt (lbs) 31 DAP: 1.16 lbs
  total fruit (lbs): 1.09 lbs
[4]; 0.375 mg al/gram seed, test b
  percent cyst reduction relative to control blank treatment: −4^b percent
[4]; 1.5 mg al/gram seed, test b
  percent cyst reduction relative to control blank treatment: 71^b percent
mice
  oral LD50 in mice: 2.3 mg/kg

## CS/C(C)=N\OC(=O)N(C)SN(C)C(=O)O/N=C(\C)SC [Thiodicarb]
[4]; 0.375 mg al/gram seed, test a
  percent cyst reduction relative to control blank treatment: 6^a percent
[4]; 1.5 mg al/gram seed, test a
  percent cyst reduction relative to control blank treatment: −23^a percent

## CNC(=O)O/N=C/C(C)(C)SC [aldicarb]
mice
  oral LD50 in mice: 0.3 mg/kg

## c1ccc(-c2cnc(-c3cccs3)o2)cc1 [compound 4417]
Meloidogyne incognita [1]
  8 ppm gall ratings: 0.33
[5]; 2 kg/ha
  Number of nematodes recovered from treated soil after 3 days incubation with the compound: 24
[5]; 4 kg/ha
  Number of nematodes recovered from treated soil after 3 days incubation with the compound: 13
[5]; 10 kg/ha
  Number of nematodes recovered from treated soil after 3 days incubation with the compound: 7
[6]
  mortality, signs of gross toxicity and behavioral changes: One animal died within four days
Meloidogyne incognita [2]; 2 kg ai/ha drench
  RG28 = % root galls at 28 days after treatment: 25.5%
  RG43 = % root galls at 43 days after treatment: 38.2%
Meloidogyne incognita [2]; 2 kg/ha, 28 DAT
  root weights (in words): not affected
  top weights (in words): reduction in top weights
Meloidogyne incognita [2]; 2 kg/ha, five days after treatment (5 DAT)
  Leaf diameter of the first true leaves: slight reduction
Meloidogyne incognita [2]; 2 kg/ha, two days after treatment
  phytotoxicity on squash seedlings: slight phytotoxicity

## Clc1ccc(-c2nnc(-c3cccs3)o2)cc1 [compound 4559]
Meloidogyne incognita [1]; Table 1B test a
  1 ppm gall ratings: 1^a (1=6-20%)
Meloidogyne incognita [1]
  8 ppm gall ratings: 0 (0=0-5%)
[5]; 2 kg/ha
  Number of nematodes recovered from treated soil after 3 days incubation with the compound: 39
[5]; 4 kg/ha
  Number of nematodes recovered from treated soil after 3 days incubation with the compound: 47
[5]; 10 kg/ha
  Number of nematodes recovered from treated soil after 3 days incubation with the compound: 33
Meloidogyne incognita [2]; 2 kg ai/ha drench
  RG28 = % root galls at 28 days after treatment: 34.2%
  RG43 = % root galls at 43 days after treatment: 24.0%
Meloidogyne incognita [2]; 2 kg/ha, 43 day time point
  control of root galling compared with oxamyl at an equivalent rate: significantly better than oxamyl

## Clc1ccc(-c2nsc(-c3ccco3)n2)c(Cl)c1 [compound 5960]
Meloidogyne incognita [1]; Table 1B test e
  1 ppm gall ratings: 0.33^e
Root knot nematode (RKN); 0.05 kg/ha
  percent control (galling reduction) relative to the control blank treatment: — — 75^c percent
Root knot nematode (RKN); 0.1 kg/ha
  percent control (galling reduction) relative to the control blank treatment: — — 75^c percent
Root knot nematode (RKN); 0.25 kg/ha
  percent control (galling reduction) relative to the control blank treatment: — — 76^c percent
[6]
  mortality, signs of gross toxicity and behavioral changes: all animals survived, gained body weight, and appeared active and healthy
Meloidogyne incognita [3]
  0-3 vigor 16 DAP: 3.0
  0-3 vigor 21 DAP: 3.0
  feeder root (3 = ave) 31 DAP: 3.3
  gall % 31 DAP: 24%
  root wgt (g) 31 DAP: 32.6 g
  top wgt (lbs) 31 DAP: 1.58 lbs
  total fruit (lbs): 1.61 lbs
Meloidogyne incognita [3]; PPI application at 4 kg/ha
  control of M. incognita (in words): significant control
